Experiment: Human HepG2 cell viability assay in 384 well format
Format: toxicity, cell-based
Parameters: dose 125 nL, time 70.5 hour; cytotoxicity at 70.5 h: concentration not given beside the values
Conditions: HepG2 cells, read-out: Inhibition

Compound | cytotoxicity at 70.5 h [%]
CN(CC1(O)CCCCC1)C1CCCN(Cc2noc(C3CC3)n2)C1 (stereo unspecified) | 16.9
CC(=O)N1CCCN(C(=O)c2cnc(OC(C)C)c(Cl)c2)CC1 | -11.9
Cc1ccc(S(=O)(=O)N2CCc3nc(C4CCNCC4)ncc3C2)cc1 | -8.7
CCOCCN1CCN(CCc2nc3ccccc3c(=O)[nH]2)CC1 | 1.75
COc1cccc(CN2C[C@H]3CCNCC[C@H]3S2(=O)=O)c1 | 18.8
Cc1nn(C(C)(C)C)c(=O)n1CC(=O)NCC(F)(F)F | 3.06
O=C(NCc1ccco1)Nc1cccc(S(=O)(=O)C(F)F)c1 | -8.46
CCc1nnc2n1CCN(C(C(=O)N(CC)CC)c1ccccc1)C2 (stereo unspecified) | -12.7
Cc1ccc(OCC(=O)NCc2ccco2)nc1 | -2.92
O=C(c1cccnc1-c1ccc2c(c1)OCCO2)N1CCCC1 | -8.05
CCCSc1ccccc1NC(=O)N1CCC(N2CCSCC2)CC1 | 0.648
Cn1cc(CN2CCc3onc(C(=O)N4CCCC4)c3C2)cn1 | 5.88
Cc1ccc(NC2CCN(C(=O)Cc3cccs3)CC2)nn1 | 2.71
NC(=O)C(Cc1ccccc1)NS(=O)(=O)Cc1ccccc1F (stereo unspecified) | -15
CCc1nc(C2CCCN2C(=O)c2ccoc2C)no1 (stereo unspecified) | -9.91
CN(C)C(=O)NCC(=O)N(C)Cc1cc(-c2ccccc2)no1 | 22
CS(=O)(=O)NC1CCCN(C(=O)COCc2ccccc2)C1 (stereo unspecified) | -10.6
CC1(C)CN(CC(F)(F)F)CCN1CC(N)=O | -3.8
N#Cc1ncn(CCC(=O)Nc2ccccc2F)n1 | -0.493
COCCN1CCc2c(cnc(-c3ccoc3)c2C(=O)O)C1 | -12.1
CN(C)c1ncccc1CNS(=O)(=O)c1ccccc1Cl | -4.36
COc1ccccc1CN1CC[C@H]2C[C@H](C(=O)N3CCCC3)O[C@H]2C1 | 15.4
Cc1nc([C@H]2C[C@@H]3CCN(Cc4cnn(C)c4)C[C@H]3O2)sc1C | -1.71

Compound | cytotoxicity at 70.5 h [%]
O=C(CNc1ccccc1Cl)Nc1cc(-n2cnnn2)ccc1F | -117
Cc1cc(=O)n(CC(=O)NC2CCCCC2)c2ccccc12 | -8.81
Cc1ccc(CN2CC[C@H]3[C@H](CC(Cn4cccn4)N3C)C2)s1 (stereo partly specified) | 15.9
CCc1cc(NCCNC(C)=O)nc(N2CCOCC2)n1 | -13.2
Cc1cc(N(C)CCn2ccnc2C)n2nccc2n1 | -11.6
COC[C@]12COC[C@H]1CN(C(=O)C1CC(F)(F)C1)C2 | -8.18
COc1ccccc1-n1nc(C(C)C)nc1Cc1nnc(N)s1 | -12.4
Cc1oncc1C(=O)N1C[C@H](OCc2ccccn2)[C@H]2OCCC[C@H]21 | -11.5
O=C(c1ccccc1)N(CC1CC1)c1cccnc1 | -1.58
CC(NCCNS(=O)(=O)c1cccc(Cl)c1)C1CCOCC1 (stereo unspecified) | -6.77
CC(C)(C)c1n[nH]c(C2CN(CCc3ccncc3)CCO2)n1 (stereo unspecified) | 0.424
COc1cc(C)cc(C(C(=O)O)N(C)Cc2cnn(C)c2)c1OC (stereo unspecified) | 4.79
O=C1COc2ccc(S(=O)(=O)N3CCOCC3)c3c2N1CCC3 | 35.1
Cn1cc(C(=O)N2CCCC2CCc2ccccc2)cn1 (stereo unspecified) | -9.35
Cc1cccc(CN2CC3(CCN(Cc4ccco4)CC3)OCC2=O)n1 | -3.31
CC(C)CNC(=O)c1cc(C2CC2)nc2onc(C3CCNCC3)c12 | -3.04
Cc1nc2c(c(NC3CCN(Cc4cccnc4)CC3)n1)CCNCC2 | -18.8
CC1CCN(c2cc(-n3cnc(C(=O)N4CCSCC4)c3)ncn2)CC1 | -13.5
CC(=O)N1CCCC2(CCN(Cc3ccc(Cl)c(F)c3)C2)C1 (stereo unspecified) | -3.79
Cc1cccc(C(=O)N2CCN(c3ccc(-n4cccc4)nn3)CC2)c1 | -7.5
Cn1cc(NC(=O)NCc2ccoc2)ccc1=O | -3.69
O=C(NCCNS(=O)(=O)C1CCCCC1)c1ccccc1 | -10.7
O=C(Nc1cc(C(F)(F)F)c[nH]c1=O)C1CCCO1 (stereo unspecified) | -7.79

Compound | cytotoxicity at 70.5 h [%]
Cc1c(S(=O)(=O)NCC(C)Cn2cc(Cl)cn2)cnn1C (stereo unspecified) | 1.36
Cn1cc(CN2C[C@@H]3CN(Cc4ccoc4)CCO[C@@H]3C2)cn1 | -3.44
Cc1ccc(C(=O)N2C[C@@H]3COC[C@]3(COc3cccnc3)C2)cn1 | 12.6
Cc1ccc(CN2CCCC3(CCCC(=O)N3)C2)s1 (stereo unspecified) | -8.14
CC(C)N(C(=O)CCc1ccco1)C1CCOCC1 | -9.28
CS(=O)(=O)Cc1nc(CN2CCC(C(F)(F)F)CC2)cs1 | -8.36
CCCN1CCCN(C(=O)C(CC)N2CCCC2=O)CC1 (stereo unspecified) | -14.5
COc1cc(NC(=O)N(C)C(C2CC2)C2CC2)ncn1 | -3.68
O=C(NC[C@H]1OC[C@@H]2CCN(C(=O)c3ccco3)C[C@@H]21)C1CC1 | -6.37
Cc1cccc(CN2C(=O)CCC23CCN(C(=O)N2CCCC2)CC3)n1 | 0.698
Fc1ccccc1CN1CCC(c2n[nH]c(C3CC3)n2)CC1 | -5.65
CN(Cc1ccccn1)C(=O)[C@H]1CO[C@H]2CCN(CC3CC3)C[C@H]2C1 | -5.92
O=C(c1ccco1)N1C[C@@H]2OCCN(CCN3CCCC3)[C@@H]2C1 | -11.2
Cc1ccccc1CN1CCN(C(=O)CN2CCOC2=O)CC1 | -6.85
CN1CCN(C[C@H]2CC[C@@H](Cc3ccc4c(c3)OCO4)O2)CC1 | -6.19
FC(F)CN1CCC(NCCc2ccc(-n3cccn3)cc2)CC1 | -5.54
Cc1cc(C(=O)N2CC[C@@H]3CN(S(C)(=O)=O)CCO[C@@H]3C2)c(C)o1 | -5.13
Cc1noc(C)c1-c1ccnc(C2CCN(C3CCOCC3)CC2)c1 | 0.77
CN1CCC(NCC(O)c2cccc(OCc3ccccc3)c2)CC1 (stereo unspecified) | 4.18
CC(C)c1nc(C2CCCN(C(=O)CN3CCCNC3=O)C2)no1 (stereo unspecified) | -6.67
Cc1nc(C)c(C(=O)N2CCc3nc4sc(C)cc4c(=O)n3CC2)o1 | -4.92
Cc1cc(NCCNc2cccnc2)nc(N)n1 | 12.3
Cc1ccc(C(C)(O)CNC(=O)CCn2ccnc2C(C)C)o1 (stereo unspecified) | -2.97

Compound | cytotoxicity at 70.5 h [%]
Cc1cccc(CO[C@H]2CO[C@@]3(CCN(S(=O)(=O)N(C)C)C3)C2)n1 | 15.2
CC(C)c1nn(C)cc1CNCc1cccnc1N(C)C | 2.18
Cc1cccc(CN2CCC(c3csc4nccn34)CC2)n1 | 0.645
c1cncc(OC[C@]23COC[C@H]2CN(Cc2ccsc2)C3)c1 | -129
CCc1ccccc1C(=O)N1C[C@@H](CN2CCOCC2)[C@@H](CO)C1 | 27.9
COc1ccc(CN2CC[C@H](c3nc4cccc(C(N)=O)c4[nH]3)C2)cc1 | 3.39
CCCn1nc(C)c(C(=O)N[C@@H]2CC[C@@H](N3CCCC3)[C@@H]2O)c1C | -6.2
CCOCc1nc(CSc2ccncc2)n(C2CCN(C)CC2)n1 | 13
CCOCC1CN(C(=O)c2cscn2)Cc2cn(C)nc21 (stereo unspecified) | -4.69
Cc1cc(NC(=O)C(C)NCCn2cccn2)no1 (stereo unspecified) | -0.681
O=C(CCc1ccccc1)C1CCCN(Cc2cncn2C2CC2)C1 (stereo unspecified) | 2.12
C[C@H]1C[C@@H]2CCN(C(=O)c3ccncc3)C[C@H]2O1 | -2.95
O=C1CCCN1CCCNCc1cc(O)c2cccc(Cl)c2n1 | 21
CC(C)Nc1ncnc2c1CCN(C(=O)CCc1ccccc1)CC2 | -3.23
COc1ccc2c(c1)CC(NC(=O)NCc1cccs1)CO2 (stereo unspecified) | -14.1
COc1ccc(-c2cc(=O)n3c(n2)CCCCC3)cc1 | -10.4
CC1(c2ccccc2)CCC(=O)N(CCCN2CCOCC2)C1 (stereo unspecified) | -8.26
Cc1noc(C)c1CN(C)C(=O)Nc1cnn(CC2CCCO2)c1 (stereo unspecified) | -16.8
CC(C)[C@H]1CN(CCCO)C[C@@H]1NC(=O)CCC(F)(F)F | -7.33
CCCc1cc(C(=O)N(C)Cc2ccc(OC)c3ncccc23)n(C)n1 | 2
Cn1ccnc1C(=O)NC[C@H]1OC[C@@H]2CCN(S(C)(=O)=O)C[C@@H]21 | 21.4
Cc1ccc(CN2Cc3nnn(C)c3C(COCC3CC3)C2)o1 (stereo unspecified) | -5.52
CN(CCN1CCOCC1)C(=O)CCc1cccc(Cl)c1 | 20.6

Compound | cytotoxicity at 70.5 h [%]
Nc1nccnc1C1CN(Cc2ccc(OCC(=O)O)cc2)CCO1 (stereo unspecified) | 0.531
CC1(C(N)=O)CN(S(=O)(=O)c2cccc(F)c2)CCO1 (stereo unspecified) | 14.7
O=C(O)c1cnc(OCC2CC2)c(Cl)c1 | -0.42
CC(NC(=O)NCc1ccoc1)c1ccc2c(c1)CC(=O)N2 (stereo unspecified) | -4.73
Cc1oncc1C(=O)N1CC[C@H]2CO[C@H](CN3CCCC3)[C@H]2C1 | -7.95
Cc1nc(CN2CCO[C@H]3[C@H](OCC(=O)N(C)C)CC[C@@H]32)cs1 | 17.3
CC(=O)N1CCCN(C(=O)CN(C)c2ccc(Cl)cn2)CC1 | 10.7
CC(=O)N1CCC(c2nc3ccc(-c4cccc(F)c4)cn3n2)CC1 | -9.34
Cc1cc(N2CCN(C(=O)C(C)n3ccnc3C(C)C)CC2)cc(C)n1 (stereo unspecified) | -4.34
Cc1nn(C(C)C)c(C)c1NC(=O)Nc1cccnc1N1CCCC1 | -8.9
c1csc(CN2CCC3(CCCN(c4nncs4)C3)C2)n1 (stereo unspecified) | -1.22
CC1=C[C@@H](CC#N)[C@H](C(C)C)C[C@H]1CC(=O)N1CCN(C)CC1 | 13.1
COCc1nc(N(C)C)ncc1C(=O)OC | -4.46
CN(CCCc1cc(-c2cccc(F)c2)n[nH]1)C(=O)Cn1cncn1 | 22.1
O=C1CCCN1Cc1nnc2n1CCCN(Cc1ccco1)C2 | -0.266
CC(C)C(=O)N1CCCC2(C1)CN(c1nncs1)CCO2 (stereo unspecified) | -2.65
CC(C)(C)N1CC(C(=O)N2CCN(CCc3ccccc3)CC2)CC1=O (stereo unspecified) | -12.8
O=C1CC(c2ncc(-c3ccc4c(c3)OCCO4)[nH]2)CN1C1CC1 (stereo unspecified) | -7.8
CC(C)CCC(=O)N1CCCC1c1nnc2n1CCCCC2 (stereo unspecified) | -6.64

— ChEMBL document CHEMBL3507680, “University of Dundee, Gates Library screen for HepG2 cell viability”
